Data: PMC7751916, “Synthesis and bioactivities of 1-(4-hydroxyphenyl)-2-((heteroaryl)thio)ethanones as carbonic anhydrase I, II and acetylcholinesterase inhibitors” (Turkish Journal of Chemistry, 2020)

How the values were obtained:
[1] = target: hCA I (Homo sapiens, UniProt P00915); experiment: CAs inhibition assay (esterase activity, p-nitrophenyl acetate); assay type: biochemical
Description: Human CA isoforms (hCAI and hCAII) were purified by the Sepharose - 4B - L - tyrosine - sulfanilamide affinity segregation method as reported. […] Inhibitory effects of the compounds were investigated by measuring the esterase activity according to Verpoorte et al. as described in previous. […] All chemicals were purchased from Sigma-Aldrich Chemie GmbH.

[2] = target: hCA II (Homo sapiens, UniProt P00918); experiment: as above; assay type: biochemical
Description: Human CA isoforms (hCAI and hCAII) were purified by the Sepharose - 4B - L - tyrosine - sulfanilamide affinity segregation method as reported. Bradford technique was used to measure protein concentrations at 595 nm. Inhibitory effects of the compounds were investigated by measuring the esterase activity according to Verpoorte et al. as described in previous. The hCA activity was determined by measuring the conversion of thep-nitrophenyl acetate substrate to p -nitro phenolate at 348 nm by the spectrophotometer (UV - VIS Spectrophotometer, UVmini-1240, Shimadzu Corporation, Kyoto, Japan). Acetazolamide (AZA) was used as a control drug. Lineweaver–Burk plot was used to calculate inhibition constants (Ki) of the compounds [33]. All chemicals were purchased from Sigma-Aldrich Chemie GmbH.

Sequence of hCA I (P00915 whole entry, canonical isoform): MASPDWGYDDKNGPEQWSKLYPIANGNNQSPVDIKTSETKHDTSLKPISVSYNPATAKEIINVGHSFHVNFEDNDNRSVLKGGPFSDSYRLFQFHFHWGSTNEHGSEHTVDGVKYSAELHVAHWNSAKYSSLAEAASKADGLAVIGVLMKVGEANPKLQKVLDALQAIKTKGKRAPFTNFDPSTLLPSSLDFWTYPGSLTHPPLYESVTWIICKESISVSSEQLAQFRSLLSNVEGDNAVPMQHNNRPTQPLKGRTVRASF

SMILES: O=C(CSc1nc2ccccc2o1)c1ccc(O)cc1 [Compound 2, 2-(Benzo[d]oxazol-2-ylthio)-1-(4-hydroxyphenyl)ethanone]
- IC50 [1]: 32.8 nM
- Ki [1]: 8.61 ± 0.9 nM
- fold more potent inhibitor against hCAI than reference AZA ([1]; based on Ki values): 2.5 fold
- IC50 [2]: 43.6 nM
- Ki [2]: 23.4 ± 7.13 nM

SMILES: Cc1nnc(SCC(=O)c2ccc(O)cc2)s1 [Compound 4, 1-(4-Hydroxyphenyl)-2-((5-methyl-1,3,4-thiadiazol-2-yl)thio)ethanone]
- IC50 [1]: 48.1 nM
- Ki [1]: 13.8 ± 2.47 nM
- IC50 [2]: 41.7 nM
- Ki [2]: 16.9 ± 3.99 nM

SMILES: O=C(CSc1nc2ccccc2s1)c1ccc(O)cc1 [Compound 1, 2-(Benzo[d]thiazol-2-ylthio)-1-(4-hydroxyphenyl)ethanone]
- IC50 [1]: 35.4 nM
- Ki [1]: 14.6 ± 2.06 nM
- IC50 [2]: 29.4 nM
- Ki [2]: 8.76 ± 0.84 nM
- fold more potent against hCAII than reference AZA ([2]; based on Ki values): 2.0 fold

SMILES: Cn1ccnc1SCC(=O)c1ccc(O)cc1 [Compound 3, 1-(4-Hydroxyphenyl)-2-((1-methyl-1H-imidazol-2-yl)thio)ethanone]
- IC50 [1]: 35.2 nM
- Ki [1]: 17.8 ± 2.08 nM
- IC50 [2]: 39.8 nM
- Ki [2]: 31.6 ± 3.29 nM

SMILES: Cn1nnnc1SCC(=O)c1ccc(O)cc1 [Compound 6, 1-(4-Hydroxyphenyl)-2-((1-methyl-1 H -tetrazol-5-yl)thio)ethanone]
- IC50 [1]: 62.5 nM
- Ki [1]: 14.4 ± 3.71 nM
- IC50 [2]: 57.3 nM
- Ki [2]: 27.4 ± 11.8 nM

SMILES: Cn1cnnc1SCC(=O)c1ccc(O)cc1 [Compound 5, 1-(4-Hydroxyphenyl)-2-((4-methyl-4 H -1,2,4-triazol-3-yl)thio)ethanone]
- IC50 [1]: 65.6 nM
- Ki [1]: 42.6 ± 7.59 nM
- IC50 [2]: 34 nM
- Ki [2]: 14.3 ± 5.1 nM
